Key:
Assay type in all cases: cell-based, Escherichia coli
E. coli EKO-35 = experiment: microbe, parasite or virus in culture
In short: (§1)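 Overnight LB cultures resuspended in PBS to OD600 ~1.0, diluted 1/2000 into MHB II, and added to 2-fold serial compound dilutions in duplicate with DMSO controls. Incubated 18 h at 37° C. with 900 rpm shaking; OD600 read before and after, background subtracted, to derive MIC.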

E. coli ΔtolC = experiment: microbe, parasite or virus in culture; settings: technical duplicate
In short: as §1

[1] = tested on: wild-type E. coli K-12 str. BW25113; experiment: microbe, parasite or virus in culture; settings: technical duplicate
In short: as §1

EKO-35 araC::acrBD408A = experiment: MIC susceptibility profiling, efflux platform
In short: as §1

EKO-35 araC::acrB = experiment: MIC susceptibility profiling, efflux platform
In short: as §1

EKO-35 araC::acrD = experiment: MIC susceptibility profiling, efflux platform
In short: as §1

EKO-35 araC::acrEF = experiment: MIC susceptibility profiling, efflux platform
In short: as §1

EKO-35 araC::emrAB = experiment: MIC susceptibility profiling, efflux platform
In short: as §1

EKO-35 araC::emrKY = experiment: MIC susceptibility profiling, efflux platform
In short: as §1

EKO-35 araC::macAB = experiment: MIC susceptibility profiling, efflux platform
In short: as §1

EKO-35 araC::mdtBC = experiment: MIC susceptibility profiling, efflux platform
In short: as §1

EKO-35 araC::mdtEF = experiment: MIC susceptibility profiling, efflux platform
In short: as §1

[2] = tested on: EKO-35 araC::mexCD (MexCD from P. aeruginosa); experiment: MIC susceptibility profiling, efflux platform
In short: as §1

wild-type (WT) K-12-Pore = experiment: microbe, parasite or virus in culture; settings: technical duplicate
In short: (§2)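 Strains carry the fhuA ΔC/Δ4L pore integrated between glmS and pstS under a constitutive promoter, with pore activity checked by vancomycin susceptibility. Overnight LB cultures were adjusted in PBS pH 7.4 to OD600 ~1.0 and diluted 1/2000 into MHB II. 2-fold compound titrations were read by OD600 after 18 h at 37 °C.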

ΔtolC-Pore = experiment: microbe, parasite or virus in culture; settings: technical duplicate
In short: as §2

EKO-35 araC::acrEF Pore = experiment: MIC susceptibility profiling, porinated efflux platform
In short: as §2

EKO-35 araC::emrKY Pore = experiment: as above
In short: as §2

EKO-35 araC::macAB Pore = experiment: as above
In short: as §2

EKO-35 araC::mdtEF Pore = experiment: as above
In short: as §2

[3] = Table 13A, non-porinated, technical duplicate
[4] = Table 13B, non-porinated, technical duplicate
[5] = Table 14A, porinated, technical duplicate

In the case of `N#CC(=NNc1cccc(C(F)(F)F)c1)C(=O)c1ccsc1` [compound 3], the “Fold change of MICs” value (E. coli EKO-35; EKO-35 compared to EKO-35 (reference)) is reported as 1 fold, the “Minimum inhibitory concentration (MIC), EKO-35” value (E. coli EKO-35; Table 10, without pore, technical duplicate) is reported as 320 µg/mL and the “Minimum Inhibitory Concentration, EKO-35” value (E. coli EKO-35; [3]) is reported as 320 µg/mL. The “Minimum inhibitory concentration (MIC), ΔtolC” value (E. coli ΔtolC; Table 10, without pore) was 2.5 µg/mL, the “Minimum Inhibitory Concentration, ΔtolC” value (E. coli ΔtolC; Table 13A, non-porinated) was 2.5 µg/mL and the “Minimum inhibitory concentration (MIC), K-12” value ([1]; Table 10, without pore) was 320 µg/mL. The “Minimum Inhibitory Concentration, K-12” value ([1]; Table 13A, non-porinated) was 320 µg/mL, the “Fold change of MICs” value (EKO-35 araC::acrBD408A; EKO-35 araC::acrBD408A compared to EKO-35) was 1 fold and the “Minimum Inhibitory Concentration, EKO-35 araC::acrBD408A” value (EKO-35 araC::acrBD408A; [4]) was 320 µg/mL. For the same molecule, the “Fold change of MICs” value (EKO-35 araC::acrB; EKO-35 araC::acrB compared to EKO-35) was 1 fold, the “Minimum Inhibitory Concentration, EKO-35 araC::acrB” value (EKO-35 araC::acrB; [3]) was 320 µg/mL and the “Fold change of MICs” value (EKO-35 araC::acrD; EKO-35 araC::acrD compared to EKO-35) was 1 fold. For the same molecule, the “Minimum Inhibitory Concentration, EKO-35 araC::acrD” value (EKO-35 araC::acrD; [3]) was 320 µg/mL, the “Fold change of MICs” value (EKO-35 araC::acrEF; EKO-35 araC::acrEF compared to EKO-35) was 1 fold and the “Minimum Inhibitory Concentration, EKO-35 araC::acrEF” value (EKO-35 araC::acrEF; [3]) was 320 µg/mL. The “Fold change of MICs” value (EKO-35 araC::emrAB; EKO-35 araC::emrAB compared to EKO-35) was 1 fold, the “Minimum Inhibitory Concentration, EKO-35 araC::emrAB” value (EKO-35 araC::emrAB; [4]) was 320 µg/mL and the “Fold change of MICs” value (EKO-35 araC::emrKY; EKO-35 araC::emrKY compared to EKO-35) was 1 fold. The “Minimum Inhibitory Concentration, EKO-35 araC::emrKY” value (EKO-35 araC::emrKY; [4]) was 320 µg/mL, the “Fold change of MICs” value (EKO-35 araC::macAB; EKO-35 araC::macAB compared to EKO-35) was 1 fold and the “Minimum Inhibitory Concentration, EKO-35 araC::macAB” value (EKO-35 araC::macAB; [4]) was 320 µg/mL. The “Fold change of MICs” value (EKO-35 araC::mdtBC; EKO-35 araC::mdtBC compared to EKO-35) was 1 fold, the “Minimum Inhibitory Concentration, EKO-35 araC::mdtBC” value (EKO-35 araC::mdtBC; [4]) was 320 µg/mL and the “Fold change of MICs” value (EKO-35 araC::mdtEF; EKO-35 araC::mdtEF compared to EKO-35) was 1 fold. The “Minimum Inhibitory Concentration, EKO-35 araC::mdtEF” value (EKO-35 araC::mdtEF; [3]) was 320 µg/mL, the “Fold change of MICs” value ([2]; EKO-35 araC::mexCD compared to EKO-35) was 1 fold and the “Minimum Inhibitory Concentration, EKO-35 araC::mexCD” value [2, 4] was 320 µg/mL. For the same molecule, the “Minimum inhibitory concentration (MIC), Pore K-12” value (wild-type (WT) K-12-Pore; Table 10, with pore) was 320 µg/mL, the “Minimum inhibitory concentration, K-12 (WT)-Pore” value (wild-type (WT) K-12-Pore; Table 14A, porinated) was 320 µg/mL and the “Minimum inhibitory concentration (MIC), Pore ΔtolC” value (ΔtolC-Pore; Table 10, with pore) was 1.25 µg/mL. For the same molecule, the “Minimum inhibitory concentration, ΔtolC-Pore” value (ΔtolC-Pore; Table 14A, porinated) was 1.25 µg/mL, the “Fold changes of MICs” value (EKO-35 araC::acrEF Pore; EKO-35 araC::acrEF Pore compared to EKO-35-Pore) was 1 fold and the “Minimum inhibitory concentration, EKO-35 araC::acrEF Pore” value (EKO-35 araC::acrEF Pore; [5]) was 320 µg/mL. The “Fold changes of MICs” value (EKO-35 araC::emrKY Pore; EKO-35 araC::emrKY Pore compared to EKO-35-Pore) was 1 fold, the Minimum inhibitory concentration (EKO-35 araC::emrKY Pore; EKO-35 araC::emrKY Pore, technical duplicate) was 320 µg/mL and the “Fold changes of MICs” value (EKO-35 araC::macAB Pore; EKO-35 araC::macAB Pore compared to EKO-35-Pore) was 1 fold. The Minimum inhibitory concentration (EKO-35 araC::macAB Pore; EKO-35 araC::macAB Pore, technical duplicate) was 320 µg/mL, the “Fold changes of MICs” value (EKO-35 araC::mdtEF Pore; EKO-35 araC::mdtEF Pore compared to EKO-35-Pore) was 1 fold and the “Minimum inhibitory concentration, EKO-35 araC::mdtEF Pore” value (EKO-35 araC::mdtEF Pore; [5]) was 320 µg/mL.

From patent US20230407243A1, “GENETIC PLATFORM TO INVESTIGATE THE FUNCTIONS OF BACTERIAL DRUG EFFLUX PUMPS” (priority 2022, published 2023)
